From patent US9944721B2, “Polysialic acid and use for treatment of neurodegenerative and neuroinflammatory diseases” (RHEINISCHE FRIEDRICH-WILHELMS UNIVERSITÄT BONN, priority 2013, dated 2018)

Columns and labels:
[1] = tested on: co-culture of human iPSdM1 microglia and iPS cell-derived neurons with amyloid-β1-42; assay: Microglia-neuron co-culture with fibrillary amyloid-β1-42, 48 hours (neurite length); assay type: cell-based; settings: 48 hours co-culture with microglia and 1 μM fibrillary amyloid-β1-42; without PSA-20 0.64+/−0.03; FIG. 4G
Experimental: Human induced pluripotent stem cell derived microglia (iPSdM) were obtained from iPS cells. iPSdM-1 line was used in this study generated from the iLB-C-35m-r1 clone (Bonn). iPSdM-1 (here named microglia or microglial cells) were culture in N2-medium consisting of DMEM/F12 culture medium (Gibco) supplemented with 1% N2 (Invitrogen), 0.48 mM L-glutamine (Gibco) and 100 μg/ml penicillin/streptomycin (Gibco). Cells were cultured with high density and split 1:5. After splitting, cells recovered and attached again to the new dishes.
Human induced pluripotent stem (iPS) cells (Foreskin-1, WiCell) were used for generation of primitive neural stem cell (pNSC) and their differentiation into neurons according to a modified protocol, which was used to obtain primitive neural precursors from human embryonic stem cells. Briefly, iPS cells were cultured on feeder cells to form small colonies. […]
Cells were fixed for 15 minutes with 4% paraformaldehyde (PFA), blocked and permeabilized for 60 minutes with a solution that contained bovine serum albumin (10% BSA) and normal goat serum (5% nGS) and 0.1% TritonX-100. […] Ten images were randomly collected from each experimental setup by confocal laser scanning microscopy (Fluoview 1000, Olympus) and total lengths of neuronal branches from β-tubulin-III stained neurites was determined done by the NIH ImageJ/NeuronJ software.

[2] = tested on: human microglia stimulated with neural debris or Drusen-like debris; assay: Debris-induced superoxide release of human microglia (macular degeneration culture model, DHE); assay type: cell-based
Experimental: Second, effect of PSA-20 on microglia stimulated with neural cellular debris was analyzed. Drusen containing cellular debris is one characteristics of senile macular degeneration. To study the effect of degenerated material on the retinal microglia, we prepared neural debris by hypotonic and mechanic lysis of human neurons derived from induced pluripotent stem cells. Then, we treated the human microglial line derived from induced pluripotent stem cells and analyzed the effect of PSA-20. Superoxide release was determined by the fluorescent dye DHE. […] Cells were fixed with 4% paraformaldehyde plus 0.25% glutaraldehyde and analyzed by confocal microscopy. For the quantification of DHE staining intensity six pictures of each experiment were obtained and analyzed by ImageJ software (NIH). […] Cells were fixed and the intensity of DHE was quantified by confocal microscopy. […]
To obtain Drusen-like debris from the retina, human retinal pigment epithelium ARPE-19 cells were treated with 80 nM okadaic acid for 24 hours at 37° C. and 5% CO2, centrifuged, washed three times with PBS and the pellet was frozen at −20° C. […] Cells were fixed and the release of superoxide was quantified by the intensity of the DHE dye. […]

## poly-(α(2→8)Neu5Ac)n [PSA-20]
[1]
  relative neurite length: 0.82+/−0.03
[2]; Drusen-like debris from ARPE-19 cells, 10 μg/ml PSA-20, 30 minutes, without PSA-20 1.38+/−0.02, FIG. 7C
  relative superoxide production: 0.92+/−0.22
[2]; neural debris from human neurons, FIG. 7B
  cellular neural debris induced superoxide production: prevented
